Assay results from the SangsterLogP compilation.

Row | SMILES | logP
1 | S=C=Nc1ccc(I)cc1 | 4.22
2 | N#Cc1cccc(N=C=S)c1 | 3.13
3 | CN(C)c1ccc(N=C=S)cc1 | 3.96
4 | CN=C=S | 0.94
5 | S=C=Nc1ccc(Cl)cc1 | 3.91
6 | CCC(C)N=C=S (stereo not drawn) | 2.81
7 | O=[N+]([O-])c1ccc(N=C=S)cc1 | 3.55
8 | COc1ccc(N=C=S)cc1 | 3.58
9 | CC(C)CN=C=S | 2.82
10 | O=C(O)c1ccc(N=C=S)cc1 | 2.44
11 | S=C=Nc1cccc(Br)c1 | 4.12
12 | O=C(O)c1cccc(N=C=S)c1 | 2.4
13 | N#Cc1ccc(N=C=S)cc1 | 2.65
14 | COc1cccc(N=C=S)c1 | 3.68
15 | CCCCN=C=S | 2.92
16 | Oc1cccc(N=C=S)c1 | 3.23
17 | S=C=Nc1cccc(Cl)c1 | 3.36
18 | Cc1ccc(N=C=S)cc1 | 3.9
